Among the data in US11529341B2, “Bicyclic compounds as inhibitors of PD1/PD-L1 interaction/activation” (JUBILANT PRODEL LLC, priority 2018, dated 2022) are IC50 values, retold here.

For this assay, the target named is T1, PD-1/PD-L1 interaction (Homo sapiens, UniProt Q9NZQ7).
T1 construct: Tag1 (undisclosed kit tag); purchased CisBio 63ADK000CPAPEG
T1 sequence (Q9NZQ7 19-238 limits assumed): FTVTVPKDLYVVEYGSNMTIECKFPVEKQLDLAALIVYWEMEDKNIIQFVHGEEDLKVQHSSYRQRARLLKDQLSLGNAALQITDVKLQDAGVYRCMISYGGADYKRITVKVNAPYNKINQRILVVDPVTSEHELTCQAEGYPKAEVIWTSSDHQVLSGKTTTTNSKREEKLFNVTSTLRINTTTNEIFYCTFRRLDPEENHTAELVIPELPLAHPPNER
The assay can be described thus: PD-1/PD-L1 Homogenous Time-Resolved Fluorescence (HTRF) binding assay (CisBio kit). The conditions noted are these: Biochemical PD1/PD-L1 inhibition. Here is the method: PD-L1 Enzyme Assay: Homogenous Time-Resolved Fluorescence (HTRF) Binding Assay
All binding studies were performed using PD-1/PD-L1 Binding Assay Kit from CisBio (Catalog #63ADK000CPAPEG), according to the manufacturer's protocol. The interaction between Tag1-PD-1 and […] was detected by anti-Tag1-Eu^3+ (HTRF donor) and anti-Tag2-XL665 (HTRF acceptor). When the donor and acceptor antibodies were brought to close proximity due to PD-1 and PD-L1 binding, excitation of the donor antibody triggered fluorescent resonance energy transfer (FRET) towards the acceptor antibody, which in turn emitted specifically at 665 nm. This specific signal is positively proportional to PD-1/PD-L1 interaction. The compounds blocking PD-1/PD-L1 interaction will cause a reduction in HTRF signal. The necessary reagents were mixed in the following order: 2 μl compounds (or diluents buffer), 4 μl PD-L1 protein, 4 μl PD-1 protein. After an incubation of 15 minutes, 5 μl of anti-Tag1-Eu^3+ and 5 μl of anti-Tag2-XL665 were added. The plate was sealed and incubated at room temperature for 1 h. The fluorescence emission was read at two different wavelengths (665 nm and 620 nm) on a BMG PheraStar® multi-plate reader. Results were calculated from the 665 nm and 620 nm fluorescence signal and expressed in HTRF ratio=(665 nm/620 nm)×10^4.
(In TR-FRET formats the signal depends on donor and acceptor labels being close together.)
A word on the IC50: it is the point on the concentration scale where inhibition reaches its midpoint. Low values mean higher potency, high ones lower potency. As for `Cc1c(COc2cc(OCc3cccc(C#N)c3)c(CN3CCC[C@@H]4C[C@@]43C(=O)O)c3c2CCC3)cccc1-c1ccccc1` (racemic) [Compound 43, rac-(1R,6S)-2-((5-((3-cyanobenzyl)oxy)-7-((2-methyl-[1,1′-biphenyl]-3-yl)methoxy)-2,3-dihydro-1H-inden-4-yl)methyl)-2-azabicyclo[4.1.0]heptane-1-carboxylic acid], the IC50 was < 100 nM.
The figure for `COc1cc(OCc2cccc(-c3ccccc3)c2C)c2c(c1CN1CCC[C@H]3C[C@]31C(=O)O)CCC2` (racemic) [Compound 45, (1R,6S)-2-((5-methoxy-7-((2-methyl-[1,1′-biphenyl]-3-yl)methoxy)-2,3-dihydro-1H-inden-4-yl)methyl)-2-azabicyclo[4.1.0]heptane-1-carboxylic acid] is 100 to 500 nM.
The figure for `Cc1c(COc2cc(OCc3cncc(C#N)c3)c(CN3CCC[C@@H]4C[C@@]43C(=O)O)c3c2CCC3)cccc1-c1ccccc1` (racemic) [Compound 51, rac-(1R,6S)-2-((5-((5-cyanopyridin-3-yl)methoxy)-7-((2-methyl-[1,1′-biphenyl]-3-yl)methoxy)-2,3-dihydro-1H-inden-4-yl)methyl)-2-azabicyclo[4.1.0]heptane-1-carboxylic acid] is < 100 nM.
As for `COc1cc(OCc2cccc(-c3ccccc3)c2C#N)c2c(c1CN1CCC[C@@H]3C[C@@]31C(=O)O)CCC2` (racemic) [Compound 62, rac-(1R,6S)-2-((7-((2-cyano-[1,1′-biphenyl]-3-yl)methoxy)-5-methoxy-2,3-dihydro-1H-inden-4-yl)methyl)-2-azabicyclo[4.1.0]heptane-1-carboxylic acid], the figure is < 100 nM; as for `N#Cc1cncc(COc2cc(OCc3cccc(-c4ccccc4)c3C#N)c3c(c2CN2CCC[C@@H]4C[C@@]42C(=O)O)CCC3)c1` (racemic) [Compound 72, rac-(1R,6S)-2-((7-((2-cyano-[1,1′-biphenyl]-3-yl)methoxy)-5-((5-cyanopyridin-3-yl)methoxy)-2,3-dihydro-1H-inden-4-yl)methyl)-2-azabicyclo[4.1.0]heptane-1-carboxylic acid], < 100 nM.
Molecule `Cc1c(COc2ccc(CN3CCCC[C@H]3C(=O)O)c3c2CCC3)cccc1-c1ccccc1` [Compound 1, (S)-1-((7-((2-methyl-[1,1′-biphenyl]-3-yl)methoxy)-2,3-dihydro-1H-inden-4-yl)methyl) piperidine-2-carboxylic acid] returned an IC50 of 100 to 500 nM.
As for `COc1cc(OCc2cccc(-c3ccccc3)c2C)c2c(c1CNCCNC(C)=O)CCC2` [Compound 2, N-(2-(((5-methoxy-7-((2-methyl-[1,1′-biphenyl]-3-yl)methoxy)-2,3-dihydro-1H-inden-4-yl)methyl)amino)ethyl)acetamide], the figure is 100 to 500 nM.
The figure for `Cc1c(COc2ccc(CN3CCCC[C@H]3C(=O)O)c3c2CCC3)cccc1-c1cccc2c1ccn2CCCN1CCC(F)(F)C1` [Compound 3, (S)-1-((7-((3-(1-(3-(3,3-difluoropyrrolidin-1-yl)propyl)-1H-indol-4-yl)-2-methylbenzyl)oxy)-2,3-dihydro-1H-inden-4-yl)methyl)piperidine-2-carboxylic acid] is > 500 nM.
The figure for `Cc1cc(CN2CCCC[C@H]2C(=O)O)c2c(c1OCc1cccc(-c3ccccc3)c1C)CCC2` [Compound 4, (S)-1-((6-methyl-7-((2-methyl-[1,1′-biphenyl]-3-yl)methoxy)-2,3-dihydro-1H-inden-4-yl)methyl)piperidine-2-carboxylic acid] is 100 to 500 nM; for `Cc1c(COc2c(Cl)cc(CN3CCCC[C@H]3C(=O)O)c3c2CCC3)cccc1-c1ccccc1` [Compound 5, (S)-1-((6-chloro-7-((2-methyl-[1,1′-biphenyl]-3-yl)methoxy)-2,3-dihydro-1H-inden-4-yl)methyl)piperidine-2-carboxylic acid] it is 100 to 500 nM.
`COC(=O)c1cc(CNCCNC(C)=O)c2c(c1OCc1cccc(-c3ccccc3)c1C)CCC2` [Compound 6, Methyl 7-(((2-acetamidoethyl)amino)methyl)-4-((2-methyl-[1,1′-biphenyl]-3-yl)methoxy)-2,3-dihydro-1H-indene-5-carboxylate]: the IC50 was > 500 nM.
As for `COc1cc(OCc2cccc(-c3cccc(OCCCN4CCC(F)(F)C4)c3C)c2C)c2c(c1CN1CCCC[C@H]1C(=O)O)CCC2` [Compound 7, (S)-1-((7-((3′-(3-(3,3-difluoropyrrolidin-1-yl)propoxy)-2,2′-dimethyl-[1,1′-biphenyl]-3-yl)methoxy)-5-methoxy-2,3-dihydro-1H-inden-4-yl)methyl)piperidine-2-carboxylic acid], the figure is > 500 nM; as for `Cc1c(COc2cc(OCc3cccc(C#N)c3)c(CN3CCCC[C@H]3C(=O)O)c3c2CCC3)cccc1-c1ccccc1` [Compound 8, (S)-1-((5-((3-cyanobenzyl)oxy)-7-((2-methyl-[1,1′-biphenyl]-3-yl)methoxy)-2,3-dihydro-1H-inden-4-yl)methyl)piperidine-2-carboxylic acid], < 100 nM; as for `Cc1c(COc2cc(OCc3cncc(F)c3)c(CN3CCCC[C@H]3C(=O)O)c3c2CCC3)cccc1-c1ccccc1` [Compound 9, (S)-1-((5-((5-fluoropyridin-3-yl)methoxy)-7-((2-methyl-[1,1′-biphenyl]-3-yl)methoxy)-2,3-dihydro-1H-inden-4-yl)methyl)piperidine-2-carboxylic acid], < 100 nM.
The figure for `CC(=O)NCCNCc1c(OCc2cncc(F)c2)cc(OCc2cccc(-c3ccccc3)c2C)c2c1CCC2` [Compound 10, N-(2-(((5-((5-fluoropyridin-3-yl)methoxy)-7-((2-methyl-[1,1′-biphenyl]-3-yl)methoxy)-2,3-dihydro-1H-inden-4-yl)methyl)amino)ethyl)acetamide] is < 100 nM.
As for `COc1cc(OCc2cccc(-c3ccccc3)c2C)c2c(c1CN1CC3(CC3)C[C@H]1C(=O)O)CCC2` [Compound 11, (S)-5-((5-methoxy-7-((2-methyl-[1,1′-biphenyl]-3-yl)methoxy)-2,3-dihydro-1H-inden-4-yl)methyl)-5-azaspiro[2.4]heptane-6-carboxylic acid], the figure is < 100 nM; as for `Cc1c(COc2cc(OCC(F)(F)F)c(CN3CCCC[C@H]3C(=O)O)c3c2CCC3)cccc1-c1ccccc1` [Compound 12, (S)-1-((7-((2-methyl-[1,1′-biphenyl]-3-yl)methoxy)-5-(2,2,2-trifluoroethoxy)-2,3-dihydro-1H-inden-4-yl)methyl)piperidine-2-carboxylic acid], < 100 nM.
With `CC(=O)N(C)CCNCc1c(OCc2cccc(C#N)c2)cc(OCc2cccc(-c3ccccc3)c2C)c2c1CCC2` [Compound 13, N-(2-(((5-((3-cyanobenzyl)oxy)-7-((2-methyl-[1,1′-biphenyl]-3-yl)methoxy)-2,3-dihydro-1H-inden-4-yl)methyl)amino)ethyl)-N-methylacetamide], the IC50 was < 100 nM.
As to `CC(=O)NCCNCc1c(OC(C)c2cccc(C#N)c2)cc(OCc2cccc(-c3ccccc3)c2C)c2c1CCC2` (stereo not shown) [Compound 14, N-(2-(((5-(1-(3-cyanophenyl)ethoxy)-7-((2-methyl-[1,1′-biphenyl]-3-yl)methoxy)-2,3-dihydro-1H-inden-4-yl)methyl)amino)ethyl)acetamide], the half-inhibitory concentration (IC50) is > 500 nM.
The figure for `CC(=O)NC1CCCN(Cc2c(OCc3cccc(C#N)c3)cc(OCc3cccc(-c4ccccc4)c3C)c3c2CCC3)C1` (stereo not shown) [Compound 15, N-(1-((5-((3-cyanobenzyl)oxy)-7-((2-methyl-[1,1′-biphenyl]-3-yl)methoxy)-2,3-dihydro-1H-inden-4-yl)methyl)piperidin-3-yl)acetamide] is < 100 nM.
For `CC(=O)NCCNCc1ccc(OCc2cccc(-c3ccccc3)c2C)c2c1CCC2` [Compound 16, N-(2-(((7-((2-methyl-[1,1′-biphenyl]-3-yl)methoxy)-2,3-dihydro-1H-inden-4-yl)methyl)amino)ethyl)acetamide], the IC50 was > 500 nM.
Turning to `Cc1c(COc2ccc(CN3CC4(COC4)C3)c3c2CCC3)cccc1-c1ccccc1` [Compound 17, 6-((7-((2-methyl-[1,1′-biphenyl]-3-yl)methoxy)-2,3-dihydro-1H-inden-4-yl)methyl)-2-oxa-6-azaspiro[3.3]heptane], the IC50 is > 500 nM.
`Cc1c(COc2ccc(CNC(CO)(CO)CO)c3c2CCC3)cccc1-c1ccccc1` [Compound 18, 2-(hydroxymethyl)-2-(((7-((2-methyl-[1,1′-biphenyl]-3-yl)methoxy)-2,3-dihydro-1H-inden-4-yl)methyl)amino)propane-1,3-diol] yielded a half-maximal inhibitory concentration (IC50) of 100 to 500 nM.
The figure for `Cc1c(COc2ccc(CNC3(C(=O)O)CC3)c3c2CCC3)cccc1-c1ccccc1` [Compound 19, 1-(((7-((2-methyl-[1,1′-biphenyl]-3-yl)methoxy)-2,3-dihydro-1H-inden-4-yl)methyl)amino)cyclopropane-1-carboxylic acid] is 100 to 500 nM.
With `Cc1c(COc2ccc(CNCC(=O)O)c3c2CCC3)cccc1-c1ccccc1` [Compound 20, ((7-((2-methyl-[1,1′-biphenyl]-3-yl)methoxy)-2,3-dihydro-1H-inden-4-yl)methyl)glycine], the IC50 is 100 to 500 nM.
